The text below walks through data of US10073084B2, “Predicting allergic reactions” (priority 2010, dated 2018).

Entries after “also recorded” stand apart in the source; their conditions may differ. Read-outs that look alike come from different tables or passages of the source.

For series [1], the system named is skin biopsy from the same donor. The experiment in a line: Skin explant assay: histological damage grade, compound-treated DC + autologous T cells + autologous skin. As to conditions: for Total positive: positive (Grade II-IV) explants / explants tested; for Grade I (number of skin explants with this histological grade): Grade I = negative; for Skin Explant Result (grade observed): Table 3.

A further series has as its system IFN-γ. The series is described as follows: IFN-γ levels in supernatant of drug treated FastDC co-cultured with autologous cells (FACs). Format: cell-based, human. As to conditions: for levels of IFN-γ (in words): FIG. 9.
Series [2] has as its system autologous T cells. The series is described as follows: Modified T cell proliferation assay ([3H] thymidine), drug treated FastDC + autologous T cells. Format: cell-based, human.
A further series has as its system CD86, CD83 and HLA-DR. The experiment in a line: Flow cytometric analysis of surface markers on treated monocyte-derived dendritic cells. It is filed as cell-based, human. As to conditions: after 24 hours of treatment, non-sensitizers compared with control cells. (In flow cytometry, cells or beads pass a laser one at a time.)
For series [3], the system named is skin biopsy from the same donor.
The subject of series [4] is cAMP-responsive element modulator (CREM). The experiment in a line: Real-time RT-PCR gene expression in treated dendritic cells: CREM. It is filed as cell-based, human. As to conditions: 3, 6, 11 and 24 h, single donor, FIG. 6.
The next series has as its system allogeneic T cells. The series is described as follows: T cell proliferation assay ([3H]-Thymidine), treated DC with allogeneic T cells (Example 3). It is filed as cell-based, human. As to conditions: FIG. 7C.
In series [5] the test system is chemokine (C-C motif) receptor 2 (CCR2). The experiment in a line: Real-time RT-PCR gene expression in treated dendritic cells: CCR2. Format: cell-based, human. As to conditions: 3, 6, 11 and 24 h, single donor, FIG. 6. For orientation: Real-time PCR tracks product formation cycle by cycle.
For series [6] the following is noted: from publicly available www.sens-it-iv website; cited from earlier work.
Series [7] deals with autologous T cells. The experiment in a line: T cell proliferation assay ([3H]-Thymidine), treated DC with autologous T cells (Example 3). It is filed as cell-based, human.
Setting [8] is: Table 2, concentrations of Table 1, positive grade.
Setting [9] is: Table 2, concentrations of Table 1.
Where [10] appears, read: FIG. 8 / FIG. 10, FastDC treated 24 hours, five days co-culture.

Consider `Nc1nnc(-c2cccc(Cl)c2Cl)c(N)n1` [L amot, Lamotrigine], for which, in series [1] (setting [8]), the “Grade II (number of skin explants with this histological grade)” value was found to be 1, the “Grade III (number of skin explants with this histological grade)” value is on record as 2 and the “Grade IV (number of skin explants with this histological grade)” value was determined as 1. Moreover, the Total positive in series [1] (Table 2) is 4/4.

`CN(Cc1cnc2nc(N)nc(N)c2n1)c1ccc(C(=O)N[C@@H](CCC(=O)O)C(=O)O)cc1` [MTX, Methotrexate]: the “Grade I (number of skin explants with this histological grade)” value in series [1] (setting [9]) turned out to be 1. Moreover, in series [1] (Table 2), the Total positive is 0/1′. Also, in the series with IFN-γ, the “levels of IFN-γ (in words)” value is “low”. In addition, the “autologous T cell proliferation (level in words)” value (“autologous T cell proliferation” for short) with autologous T cells [2] (setting [10]) is given as “low”.

On to Triton-X-100, for which the “expression of the markers CD86, CD83 and HLA-DR” value (from here on “expression of the markers CD86”) in the series on CD86, CD83 and HLA-DR is “increase in expression”. Also, in the series with IFN-γ (Table 3), the “IFNγ Mean” value is recorded as 33.54. Also, in series [3], the “Grade I (number of skin explants with this histological grade)” value was found to be 4, the “Skin Explant Result (grade observed)” value is given as “Grade I” and the Total positive is 0/4. Also, in the series on autologous T cells [2] (setting [10]), the “autologous T cell proliferation” value was “low”. In addition, the “CREM expression, logarithmic fold change (LFC)” value in [4] is given as “up-regulated for each time point”. Also, in the series on allogeneic T cells, the “level of incorporation of [3H]-Thymidine” value is “approximately 100,000 CPM”. In addition, the “CCR2 expression, logarithmic fold change (LFC)” value in [5] is “down-regulated after each time period”.

As to `O=S(=O)([O-])[O-].[Zn+2]` [ZnSO4, Zinc Sulphate], the “IFNγ Mean” value in the series with IFN-γ came out at 13.39. Also, in series [3], the “Grade I (number of skin explants with this histological grade)” value is 2 and the Total positive is 2/4. Also, in the series with autologous T cells [2], the “autologous T cell proliferation” value is “low”. For the same compound, in series [6], the “LLNA Class” value is reported as “Non sensitiser”.

For the compound `N[C@@H](CCC(=O)O)C(=O)O` [LGA, Glutamic Acid], in series [1] (setting [9]), the “Grade I (number of skin explants with this histological grade)” value was 2. Further, in series [1] (setting [8]), the “Grade II (number of skin explants with this histological grade)” value is 1. Also, in [1] (Table 2), the Total positive was 1/3. The “Skin Explant Result (grade observed)” value in [1] (listed as LGA (glutamic Acid)) is “Grade I; also recorded: Grade II”. In addition, the “IFNγ Mean” value in the series with IFN-γ (Table 3) amounted to 48.40. Further, the “autologous T cell proliferation” value in the series with autologous T cells [2] (setting [10]) is on record as “low”.

As to `CCCCCCCCCCCCOS(=O)(=O)[O-].[Na+]` [SDS, Sodium Dodecyl Sulfate], in the series on CD86, CD83 and HLA-DR, the “expression of the markers CD86” value is listed as “increase in expression”. Further, the “IFNγ Mean” value in the series with IFN-γ (Table 3) is reported as 80.33. The Total positive in series [3] (human) was 3/6. In the series with autologous T cells [2] (setting [10]), the “autologous T cell proliferation” value is listed as “low”. The “CREM expression, logarithmic fold change (LFC)” value in [4] is ~0. Besides, the “CCR2 expression, logarithmic fold change (LFC)” value in [5] was “flipping from a down-regulation to an up-regulation”.

As for `C[S+](C)[O-]` [DMSO, Dimethyl sulfoxide], the “Grade I (number of skin explants with this histological grade)” value in series [1] (setting [9]) was found to be 2. For the same compound, in series [1] (setting [8]), the “Grade II (number of skin explants with this histological grade)” value was determined as 1. Further, the Total positive in series [1] (Table 2) is listed as 1/3. The “Skin Explant Result (grade observed)” value in series [1] is listed as “Grade I; also recorded: Grade II”. The “autologous T cell proliferation” value in the series on autologous T cells [2] (setting [10]) is listed as “low”.

Consider `CCC(C)(C)C(=O)O[C@H]1C[C@@H](C)C=C2C=C[C@H](C)[C@H](CC[C@@H]3C[C@@H](O)CC(=O)O3)[C@H]21` [SimV, Simvastatin], for which the “Grade I (number of skin explants with this histological grade)” value in series [1] (setting [9]) stood at 2. The “Grade III (number of skin explants with this histological grade)” value in series [1] (setting [8]) is reported as 1. Moreover, the Total positive in [1] (Table 2) is recorded as 1/3.

As for `NC[C@@H]1O[C@H](O[C@H]2[C@@H](O)[C@H](O[C@@H]3[C@@H](O)[C@H](N)C[C@H](N)[C@H]3O[C@H]3O[C@H](CN)[C@@H](O)[C@H](O)[C@H]3N)O[C@@H]2CO)[C@H](N)[C@@H](O)[C@@H]1O` [Neo, Neomycin], in series [3], the “Grade I (number of skin explants with this histological grade)” value is 1 and the Total positive was 4/5.

As for `C=CCc1ccc(O)c(OC)c1` [Eugenol], the “expression of the markers CD86” value in the series on CD86, CD83 and HLA-DR is given as “reduced peak of expression”. Also, the “IFNγ Mean” value in the series with IFN-γ (Table 3) is reported as 425.66. For the same compound, in series [3] (human, 3 days), the “Grade IV (number of skin explants with this histological grade)” value amounted to 1 and the Total positive is 5/5. For the same compound, the “CREM expression, logarithmic fold change (LFC)” value in [4] was “up-regulated until 24 hours when it becomes down-regulated”. In the series on autologous T cells [7] (summary statement, T cell source not stated, not reproducible), the “T cell proliferation response versus SDS-treated DC” value is listed as “Two-fold”. Also, the “[3H]-Thymidine count relative to SDS and Triton X-100” value in the series on autologous T cells [7] (treated DC with autologous T cells, FIG. 7B) is on record as “two-fold”. In addition, the “difference in counts per minute (CPM) versus SDS” value with allogeneic T cells is “greater than two-fold”. Moreover, the “CCR2 expression, logarithmic fold change (LFC)” value in series [5] was “down-regulated from 3-11 hours and then is up-regulated at 24 hours”.

As to `CCOC(=O)c1ccc(N)cc1` [Bz, Benzocaine], the Total positive in series [1] (Table 2) was 1/1.

Turning to `Sc1nc2ccccc2s1` [2Mercp, 2-mercaptobenzothiazole], in series [1] (setting [9]), the “Grade I (number of skin explants with this histological grade)” value stood at 1. Also, in series [1] (setting [8]), the “Grade II (number of skin explants with this histological grade)” value is 1 and the “Grade III (number of skin explants with this histological grade)” value came out at 2. In addition, the Total positive in series [1] (Table 2) is listed as 3/4. Besides, in the series on IFN-γ (Table 3), the “IFNγ Mean” value was 628.81. Also, the “LLNA Class” value in series [6] was “Moderate”.

As to `CC1(C)S[C@@H]2[C@H](NC(=O)[C@H](N)c3ccc(O)cc3)C(=O)N2[C@H]1C(=O)O` [Amoxo, Amoxicillin], in series [3], the “Grade IV (number of skin explants with this histological grade)” value is 1 and the Total positive was 4/5.

As for `O=CC=Cc1ccccc1` [CINN, Cinnamaldehyde], the “IFNγ Mean” value with IFN-γ (Table 3) was 227.76. Further, in [3] (human, 3 days), the “Grade I (number of skin explants with this histological grade)” value amounted to 2 and the Total positive is on record as 2/4.

As to Penicillin, in series [1] (setting [8]), the “Grade II (number of skin explants with this histological grade)” value worked out at 1 and the “Grade III (number of skin explants with this histological grade)” value is 3. Besides, in [1] (Table 2), the Total positive was 4/4. In series [1] (listed as Penicillin G), the “Skin Explant Result (grade observed)” value was “Grade III; also recorded: Grade II”. In the series with IFN-γ (Table 3), the “IFNγ Mean” value came to 549.25. For the same compound, the “LLNA Class” value in [6] is on record as “Weak”.

Take `CN(C)C=O` [DMT, Dimethyl formamide]: in [1] (setting [9]), the “Grade I (number of skin explants with this histological grade)” value turned out to be 3. In addition, in series [1] (Table 2), the Total positive is 0/3. In series [1], the “Skin Explant Result (grade observed)” value is “Grade I”. Besides, in the series on IFN-γ (Table 3), the “IFNγ Mean” value is 158.59. Further, the “autologous T cell proliferation” value in the series with autologous T cells [2] (setting [10]) was “low”.

`OCC(O)CO` [Gly, Glycerol]: in series [1] (Table 2), the Total positive is recorded as 1/4. In the series with IFN-γ (Table 3), the “IFNγ Mean” value is recorded as 144.28. Moreover, in the series on autologous T cells [2] (setting [10]), the “autologous T cell proliferation” value was “low”.

Take `CC(C)O` [IP, Isopropanol]: the Total positive in series [1] (Table 2) is 0/5. Further, the “IFNγ Mean” value with IFN-γ (Table 3) amounted to 207.26. The “autologous T cell proliferation” value in the series on autologous T cells [2] (setting [10]) is “low”.

`CN(C)C(=N)N=C(N)N` [Met, Metformin]: in [1] (setting [9]), the “Grade I (number of skin explants with this histological grade)” value was 2. Also, the Total positive in series [1] (Table 2) is 0/2. The “levels of IFN-γ (in words)” value in the series with IFN-γ was “low”. Besides, the “autologous T cell proliferation” value in the series on autologous T cells [2] (setting [10]) was “low”.

Consider Tween 20, for which the “Grade I (number of skin explants with this histological grade)” value in [1] (setting [9]) turned out to be 2. Besides, the Total positive in series [1] (Table 2) is listed as 0/2. In addition, the “Skin Explant Result (grade observed)” value in series [1] was “Grade I”. Also, the “IFNγ Mean” value in the series on IFN-γ (Table 3) stood at 188.24. Moreover, the “autologous T cell proliferation” value in the series with autologous T cells [2] (setting [10]) is reported as “low”. For the same compound, the “LLNA Class” value in series [6] is recorded as “Non sensitiser”.
